US4764506A, “N^6 -(benzothien-3-yl)ethyl adenosine; N^6 -(benzothien-3-yl)ethyl adenosine, S-oxide; and N^6 -(benzothien-3-yl)ethyl S,S-dioxide adenosine” (Warner-Lambert Company, priority 1986, dated 1988)

Columns and labels:
adenosine A1 receptor = target: T1, adenosine A1 receptor (Rattus norvegicus, UniProt P25099); assay: Adenosine Receptor Binding--A1 Receptor Affinity (RBA1), [3H]-CHA displacement, rat whole brain membranes; parameters: species or system rat (Long Evans); conditions: 1.0 nM [3H]-CHA, pH 7.7, 25° C., read-out: RBA-1
T1 construct: Whole brain minus cerebellum and brainstem from male Long Evans rats; from tissue; host or cells: rat whole brain minus cerebellum and brainstem, membranes (male Long Evans)
T1 sequence (P25099 1-326): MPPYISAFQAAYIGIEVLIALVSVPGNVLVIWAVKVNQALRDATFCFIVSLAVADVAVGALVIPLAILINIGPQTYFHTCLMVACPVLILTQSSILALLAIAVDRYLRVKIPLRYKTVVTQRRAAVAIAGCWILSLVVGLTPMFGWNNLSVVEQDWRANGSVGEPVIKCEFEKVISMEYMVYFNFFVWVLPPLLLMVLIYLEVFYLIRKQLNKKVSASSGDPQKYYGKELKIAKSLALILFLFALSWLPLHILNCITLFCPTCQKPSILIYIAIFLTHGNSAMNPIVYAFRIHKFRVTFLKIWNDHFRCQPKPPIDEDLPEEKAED
Method: Whole brain minus cerebellum and brainstem from male Long Evans rats (150-200 g) was homogenized in 30 volumes of ice-cold 0.05 M Tris-HCl buffer pH 7.7 using a Brinkman Polytron PT-10, (setting number 6 for 20 seconds) and centrifuged for ten minutes at 20,000×g (Sorvall RC-2), 4° C. The supernatant was discarded, and the pellet was resuspended and centrifuged as before. The pellet was resuspended in 20 ml Tris-HCl buffer containing two International Units/ml of adenosine deaminase (Sigma type III from calf intestinal mucosa), incubated at 37° C. for 30 minutes, then subsequently at 0° C. for ten minutes. The homogenate was again centrifuged, and the final pellet was resuspended in ice-cold 0.05 M Tris-HCl buffer pH 7.7 to a concentration of 20 mg/ml original wet tissue weight and used immediately.
Tissue homogenate (10 mg/ml) was incubated in 0.05 M Tris-HCl buffer pH 7.7 containing 1.0 nM [^3 H]-N^6 -cyclohexyladenosine (^3 H]-CHA) with or without test agents in triplicate for one hour at 25° C. Incubation volume was 2 ml. Unbound [^3 H]-CHA was separated by rapid filtration under reduced pressure through Whatman glass fiber (GF/B) filters. The filters were rinsed three times with 5 ml of ice cold 0.05 M Tris-HCl buffer pH 7.7. The radio-labeled ligand retained on the filter was measured by liquid scintillation spectrophotometry after shaking the filters for one hour or longer on a mechanical shaker in 10 ml of Beckman Ready-Solv HP scintillation cocktail.
Nonspecific binding was defined as the binding which occurred in the presence of 1 mM theophylline. The concentration of test agent which inhibited 50% of the specific binding (IC50) was determined by nonlinear computer curve fit. The Scatchard plot was calculated by linear regression of the line obtained by plotting the amount of radioligand bound [formula] Since the amount of radioligand bound was a small fraction of the total amount added, free radioligand was defined as the concentration (nM) of radioligand added to the incubation mixture. The Hill coefficient was calculated by linear regression of the line obtained by plotting the log of the bound radioligand vs the log of the [formula] The maximal number of binding sites (Bmax) was calculated from the Scatchard plot.

[1] = Mouse Activity and Screen Test Procedure (MAST): screen test (mice falling off inverted screen); format: in vivo, mouse (Swiss-Webster, male); conditions: IP
Text: (§1) The compounds of the invention are new chemical substances which are useful as pharmaceutical agents for the treatment of psychoses. The antipsychotic activity of representative compounds of the invention was established by the Mouse Activity and Screen Test Procedure (MAST) described below.
(§2) Nine unfasted Swiss-Webster male mice weighing 20-30 g are equally divided into three groups for each drug dose to be tested. That is, data for each dose level was generated by three separate groups of three mice each.
(§3) A minimum of three dose levels (10, 30, and 100 mg/kg) are tested for each drug. Treatments are administered intraperitoneally one hour prior to testing. All dosages are calculated as parent compound and given in volumes of 10 ml/kg. Compounds are dissolved or suspended in 0.2% Methocel. Control animals are injected with Methocel.
(§4) Testing: A two part testing procedure is started one hour postinjection. First, the screen test (ST) is performed (see Pharmac. Biochem. Behav. 6, 351-353, 1977). Briefly this test consists of placing mice on individual wire screens which are then rotated 180 degrees at the start of a 60 second observation period. The number of mice falling off the inverted screen is recorded.
(§5) Data: The data obtained from the screen test are expressed as percent of mice falling off the screen. Data derived from locomotor activity of drug treated mice are compared to the activity of vehicle treated animals and are expressed as percent inhibition of spontaneous locomotion. All percentages reported for inhibition of locomotion (LI) are based upon data accumulated for one hour. Both phases of testing are graded: A=60-100%; C=31-59%; and N=0-30%. An overall dose rating is obtained by the following criteria:
(§6) LAD refers to the lowest dose at which an A rating is achieved. […] Utilizing this procedure, an overall dose rating of A was obtained for the noted compound at the indicated dose. The compounds are identified in the Examples.

adenosine A2 receptor = target: T2, adenosine A2 receptor (Rattus norvegicus, UniProt P30543); assay: Adenosine Receptor Binding--A2 Receptor Affinity (RBA2), [3H]NECA displacement, rat striatal membranes; parameters: species or system rat (Sprague-Dawley); conditions: 4 nM [3H]NECA, 50 nM N6-cyclopentyladenosine, rat striatum, 25° C., read-out: RBA-2
T2 construct: Brains were thawed and then kept on ice while the striata were dissected out; tissue Pel-Freez (Rogers, Ark.); host or cells: rat striatum, membranes (mixed sex Sprague-Dawley)
T2 sequence (P30543 whole entry): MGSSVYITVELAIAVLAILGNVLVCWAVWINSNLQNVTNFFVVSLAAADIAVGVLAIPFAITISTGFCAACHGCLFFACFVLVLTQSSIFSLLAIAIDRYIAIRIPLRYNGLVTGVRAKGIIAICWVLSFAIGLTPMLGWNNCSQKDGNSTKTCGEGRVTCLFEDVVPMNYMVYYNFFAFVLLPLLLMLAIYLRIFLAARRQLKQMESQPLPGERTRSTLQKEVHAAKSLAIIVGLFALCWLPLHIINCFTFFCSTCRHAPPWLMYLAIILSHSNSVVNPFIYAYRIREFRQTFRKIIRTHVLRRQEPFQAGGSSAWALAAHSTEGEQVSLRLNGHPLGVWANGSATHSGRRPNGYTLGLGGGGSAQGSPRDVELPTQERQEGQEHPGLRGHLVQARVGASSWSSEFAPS
Method: Brains from 200-500 g mixed sex Sprague-Dawley rats were purchased from Pel-Freez (Rogers, Ark.). Fresh brains from male Long-Evans hooded rats (Blue Spruce Farms, Altamont, N.Y.) gave essentially identical results. Brains were thawed and then kept on ice while the striata were dissected out. Striata were disrupted in 10 vol of ice-cold 50 mM Tris.HCl (pH 7.7 at 25° C., pH 8.26 at 5° C.) (Tris) for 30 seconds in a Polytron PT-10 (Brinkmann) at setting 5. The suspension was centrifuged at 50,000 xg for ten minutes, the supernatant discarded, the pellet resuspended in 10 vol ice-cold Tris as above, recentrifuged, resuspended at 1 g/5 ml, and stored in plastic vials at -70° C. (stable for at least six months). When needed, tissue was thawed at room temperature, disrupted in a Polytron, and kept on ice until used.
All incubations were for 60 minutes at 25° C. in 12×75 mm glass tubes containing 1 ml Tris with 5 mg original tissue weight of rat weight of rat striatal membranes, 4 nM [^3 H]-N-ethyl adenosine-5'-carboxamide ([^3 H]NECA), 50 nM N^6 -cyclopentyladenosine (to eliminate A1 receptor binding), 10 mM MgCl2, 0.1 units/ml of adenosine deaminase and 1% dimethylsulfoxide. N^6 -Cyclopentyladenosine was dissolved at 10 mM in 0.02N HCl and diluted in Tris. Stock solutions and dilutions of N^6 -cyclopentyladenosine could be stored at -20° C. for several months. Test compounds were dissolved at 10 mM in dimethylsulfoxide on the same day as the experiment, and diluted in dimethylsulfoxide to 100× the final incubation concentration. Control incubations received an equal volume (10 μl) of dimethylsulfoxide; the resulting concentration of dimethylsulfoxide had no effect on binding. [^3 H]NECA was diluted to 40 nM in Tris. The membrane suspension (5 mg/0.79 ml) contained sufficient MgCl2 and adenosine deaminase to give 10 mM and 0.1 units/ml, respectively, final concentration in the incubation. […]
Incubations were terminated by filtration through 2.4 cm GF/B filters under reduced pressure. […] Filters were put in scintillation vials, 8 ml of Formula 947 scintillation fluid added, and the vials left overnight, shaken, and counted in a liquid scintillation counter at 40% efficiency.
Nonspecific binding was defined as binding in the presence of 100 μM N^6 -cyclopentyladenosine, and specific binding was defined as total binding minus nonspecific binding. The IC50 was calculated by weighted nonlinear least squares curve-fitting to the mass-action equation. […]
Weighting factors were calculated under the assumption that the standard deviation was proportional to the predicted value of Y. Nonspecific binding was treated as a very large (infinite) concentration of drug in the computer analysis.

[2] = Mouse Activity and Screen Test Procedure (MAST): inhibition of spontaneous locomotion (actophotometer) and overall dose rating; format: in vivo, mouse (Swiss-Webster, male); conditions: IP
Text: as §1, §2, §3, §4
Immediately following the screen test, the final phase of testing is initiated by placing each group of three mice in one actophotometer (Life Sciences, 22, 1067-1076, 1978). The actophotometer consists of a cylindrical chamber whose center is occupied by another cylinder which contains the illumination for six photocells located on the perimeter of the chamber. Six light-beam interruptions equal one count. Locomotor activity is recorded by computer at ten minute intervals for 60 minutes.
as §5, §6

[3] = as above; format: in vivo, mouse (Swiss-Webster, male); conditions: PO
[4] = Mouse Activity and Screen Test Procedure (MAST): screen test (mice falling off inverted screen); format: in vivo, mouse (Swiss-Webster, male); conditions: PO

IC50 (adenosine A1 receptor)	Screen Test Failure ([1]; 3 mg/kg)	Screen Test Failure ([1]; 10 mg/kg)	Screen Test Failure ([1]; 30 mg/kg)	IC50 (adenosine A2 receptor)	Screen Test Failure ([4]; 3 mg/kg)	Screen Test Failure ([4]; 10 mg/kg)	Screen Test Failure ([4]; 30 mg/kg)	SMILES	Inhibition of Mouse Locomotion Activity ([2]; 3 mg/kg)	Inhibition of Mouse Locomotion Activity ([2]; 10 mg/kg)	Inhibition of Mouse Locomotion Activity ([2]; 30 mg/kg)	Inhibition of Mouse Locomotion Activity ([3]; 3 mg/kg)	Inhibition of Mouse Locomotion Activity ([3]; 10 mg/kg)	Inhibition of Mouse Locomotion Activity ([3]; 30 mg/kg)
4.5 nM	0%	0%	0%	549 nM	–	–	–	OC[C@H]1O[C@@H](n2cnc3c(NCCc4csc5ccc(Cl)cc45)ncnc32)[C@H](O)[C@@H]1O [Example 3, N-[2-(5-chlorobenzo[b]thien-3-yl)ethyl]adenosine]	27%	54%	86%	–	–	–
12 nM	0%	11%	0%	303 nM	–	–	–	OC[C@H]1O[C@@H](n2cnc3c(NCCc4csc5ccccc45)ncnc32)[C@H](O)[C@@H]1O [Example 2, N-[2-(benzo[b]thien-3-yl)ethyl]adenosine]	21%	30%	63%	–	–	–
4.3 nM	0%	0%	0%	413 nM	–	–	–	Cc1ccc2scc(CCNc3ncnc4c3ncn4[C@@H]3O[C@H](CO)[C@@H](O)[C@H]3O)c2c1 [Example 4, N-[2-(5-methylbenzo[b]thien-3-yl)ethyl]adenosine]	48%	63%	89%	–	–	–
7.7 nM	0%	11%	11%	343 nM	17%	0%	44%	COc1ccc2c(CCNc3ncnc4c3ncn4[C@@H]3O[C@H](CO)[C@@H](O)[C@H]3O)csc2c1 [Example 1, N-[2-(6-methoxybenzo[b]thien-3-yl)ethyl]adenosine]	23%	48%	92%	12%	42%	84%
